{
  "source": "paper PMC5818615",
  "about": "“Use of HuH6 and other human-derived hepatoma lines for the detection of genotoxins: a new hope for laboratory animals?” (Archives of Toxicology, 2017)",
  "key": {"HepaRG cells [1]": {"system": "HepaRG cells", "details": "ref Le Hegarat et al. [2014]; cited from earlier work"}, "p53 protein": {"system": "p53 protein", "experiment": "Induction of p53 protein expression (Western Blot) in liver cell lines", "format": "cell-based, human", "parameters": "key to P53 protein expression (Western Blot) Induced: No expression is indicated with −; background expression with +; induced expression with ++; highly induced expression with +++", "details": "for P53 protein expression (Western Blot) Induced: 30 µM B(a)P for 24 h", "protocol": "(§1) The expression of the p53 gene in the different cell lines was analyzed using real-time quantitative PCR (RT-qPCR) according to the description of Straser et al. ([2013]). The protein was quantified by Western blotting as described by Pezdirc et al. ([2013])."}, "p53 gene": {"system": "p53 gene", "experiment": "Induction of p53 gene expression (RT-qPCR) in liver cell lines", "format": "cell-based, human", "details": "30 µM B(a)P for 24 h", "protocol": "as §1"}, "[2]": {"system": "primary human hepatocytes", "details": "cited from earlier work"}, "HCC 1.2 cells": {"system": "HCC 1.2 cells", "protocol": "(§2) The SCGE experiments were conducted as described in an international guideline (Tice et al. [2000]). Reagents for the assays (lysis solution and alkaline electrophoresis buffer) and agarose-coated slides were prepared according to Collins and Dusinska ([2009]).\n(§3) Briefly, cells were sub-cultured in 1.0 ml medium in 24–well tissue-culture plates (Sarstedt Inc., Newton, NC, USA). After 24 h, the media were changed and the cells exposed to different concentrations of the test compounds or to the solvent controls (PBS or DMSO). […] To terminate the treatment, the cells were washed twice with PBS (1.0 ml), trypsinized (100 µl T/E per well, 4 min) and then resuspended in 400 µl culture medium containing FBS. Subsequently, the suspensions were transferred to Eppendorf tubes and centrifuged (200g, 5 min). Cell pellets were resuspended in cold PBS.\n(§4) In all experiments, acute toxic effects were determined with a CASY® Cell Counter and Analyzer System (Schärfe-System GmbH, Reutlingen, Germany) (Lindl et al. [2005]). SCGE assays were only performed when the viability of the cultures was ≥ 70% (Koppen et al. [2017]). Per experimental point, two cultures were set up in parallel and from each one slide with two separate gels (30,000 cells/gel) was prepared. After unwinding (40 min, pH > 13) and electrophoresis (30 min, 0.75 V/cm, ~ 300 mA, 4 °C, pH > 13), 50 cells were evaluated per gel (200 cells per experimental point). As an endpoint, we determined the tail intensities (“% DNA in tail”) with a computer-aided system Comet Assay IV (Perceptive Instruments, Bury St Edmunds, UK), which is at present the most widely used parameter (Collins et al. [2008]; Moller [2006]). For each gel, the median of the tail intensity was calculated."}, "Hep3B cells": {"system": "Hep3B cells", "protocol": "as §2, §3, §4"}, "HepG2 cells": {"system": "HepG2 cells", "protocol": "as §2, §3, §4"}, "HepaRG cells [3]": {"system": "HepaRG cells", "protocol": "as §2, §3, §4"}, "HuH6 cells": {"system": "HuH6 cells", "protocol": "as §2, §3, §4"}, "HuH7 cells": {"system": "HuH7 cells", "protocol": "as §2, §3, §4"}, "JHH6 cells": {"system": "JHH6 cells", "protocol": "as §2, §3, §4"}, "PLC/PRF cells": {"system": "PLC/PRF cells", "protocol": "as §2, §3, §4"}, "SK-Hep1 cells": {"system": "SK-Hep1 cells", "protocol": "as §2, §3, §4"}, "SNU-398 cells": {"system": "SNU-398 cells", "protocol": "as §2, §3, §4"}, "SNU-449 cells": {"system": "SNU-449 cells", "protocol": "as §2, §3, §4"}, "WRL68 cells": {"system": "WRL68 cells", "protocol": "as §2, §3, §4"}, "[4]": {"system": "human derived liver cell lines", "protocol": "as §2, §3, §4"}},
  "note": "Where two headings read alike, the source gives them in different places. Marks after values point to notes of the source that are not given here.",
  "data": [
    {"compound": "Cc1ccc(N)cc1N", "note": "[2,4-diaminotoluene]", "values": [
      {"measurement": "Result of SCGE experiments (in words)", "setting": "HepaRG cells [1]", "value": "negative results"}
    ]},
    {"compound": "CC(=O)Nc1ccc2c(c1)Cc1ccccc1-2", "note": "[2-acetylaminofluorene]", "values": [
      {"measurement": "Result of SCGE experiments (in words)", "setting": "HepaRG cells [1]", "value": "negative results"}
    ]},
    {"compound": "c1ccc2c(c1)cc1ccc3cccc4ccc2c1c34", "note": "[B(a)P, benzo(a)pyrene]", "values": [
      {"measurement": "P53 protein expression (Western Blot) Induced", "setting": "p53 protein; HCC 1.2 cells, background +, mutated p53", "value": "+"},
      {"measurement": "P53 protein expression (Western Blot) Induced", "setting": "p53 protein; Hep3B cells, background −", "value": "−"},
      {"measurement": "p53 protein induction (in words)", "setting": "p53 protein; HepG2, B(a)P treatment for 24 h", "value": "induced"},
      {"measurement": "P53 protein expression (Western Blot) Induced", "setting": "p53 protein; HepG2 cells, background +", "value": "+++"},
      {"measurement": "P53 protein expression (Western Blot) Induced", "setting": "p53 protein; HepaRG cells, background +", "value": "+"},
      {"measurement": "p53 protein induction (in words)", "setting": "p53 protein; HuH6, B(a)P treatment for 24 h", "value": "induced"},
      {"measurement": "P53 protein expression (Western Blot) Induced", "setting": "p53 protein; HuH6 cells, background +", "value": "++"},
      {"measurement": "P53 protein expression (Western Blot) Induced", "setting": "p53 protein; HuH7 cells, background +", "value": "+"},
      {"measurement": "P53 protein expression (Western Blot) Induced", "setting": "p53 protein; JHH6 cells, background +", "value": "+"},
      {"measurement": "P53 protein expression (Western Blot) Induced", "setting": "p53 protein; PLC/PRF cells, background +", "value": "+"},
      {"measurement": "P53 protein expression (Western Blot) Induced", "setting": "p53 protein; SK-Hep1 cells, background +", "value": "+"},
      {"measurement": "P53 protein expression (Western Blot) Induced", "setting": "p53 protein; SNU-398 cells, background +, mutated p53", "value": "+"},
      {"measurement": "P53 protein expression (Western Blot) Induced", "setting": "p53 protein; SNU-449 cells, background +", "value": "+"},
      {"measurement": "P53 protein expression (Western Blot) Induced", "setting": "p53 protein; WRL68 cells, background +", "value": "+"},
      {"measurement": "P53 gene expression (RT-qPCR) Induced", "setting": "p53 gene; HCC 1.2 cells, background 1", "value": "1.50 ± 0.33"},
      {"measurement": "P53 gene expression (RT-qPCR) Induced", "setting": "p53 gene; Hep3B cells, background 0", "value": 0},
      {"measurement": "P53 gene expression (RT-qPCR) Induced", "setting": "p53 gene; HepG2 cells, background 1", "value": "1.48 ± 0.18"},
      {"measurement": "P53 gene expression (RT-qPCR) Induced", "setting": "p53 gene; HepaRG cells, background 1", "value": "0.87 ± 0.14"},
      {"measurement": "P53 gene expression (RT-qPCR) Induced", "setting": "p53 gene; HuH6 cells, background 1", "value": "1.26 ± 0.01"},
      {"measurement": "P53 gene expression (RT-qPCR) Induced", "setting": "p53 gene; HuH7 cells, background 1", "value": "1.13 ± 0.01"},
      {"measurement": "P53 gene expression (RT-qPCR) Induced", "setting": "p53 gene; JHH6 cells, background 1", "value": "1.00 ± 0.03"},
      {"measurement": "P53 gene expression (RT-qPCR) Induced", "setting": "p53 gene; PLC/PRF cells, background 1", "value": "0.89 ± 0.05"},
      {"measurement": "P53 gene expression (RT-qPCR) Induced", "setting": "p53 gene; SK-Hep1 cells, background 1", "value": "1.04 ± 0.12"},
      {"measurement": "P53 gene expression (RT-qPCR) Induced", "setting": "p53 gene; SNU-398 cells, background 1", "value": "1.03 ± 0.15"},
      {"measurement": "P53 gene expression (RT-qPCR) Induced", "setting": "p53 gene; SNU-449 cells, background 1", "value": "0.95 ± 0.03"},
      {"measurement": "P53 gene expression (RT-qPCR) Induced", "setting": "p53 gene; WRL68 cells, background 1", "value": "0.96 ± 0.03"},
      {"measurement": "DNA migration in comet assay", "setting": "[2]; primary liver cells, 50 µM, 3 h, statistically not analyzed, ref Monteith and Vanstone [1995]", "value": "increase of DNA migration"},
      {"measurement": "Sensitivity of primary hepatocytes compared with HepG2", "setting": "[2]; ref Wilkening et al. [2003]", "value": "no difference"}
    ]},
    {"compound": "N-nitrosodimethylamine [NDMA]", "values": [
      {"measurement": "% DNA in tail", "setting": "HCC 1.2 cells", "value": "1.77 ± 1.64 16.3 ± 4.52* 17.1 ± 3.64* 8.87 ± 0.30 %"},
      {"measurement": "% DNA in tail", "setting": "Hep3B cells", "value": "0.57 ± 0.21 0.62 ± 0.45 0.92 ± 0.45 0.61 ± 0.47%"},
      {"measurement": "% DNA in tail", "setting": "HepG2 cells", "value": "0.35 ± 0.21 0.83 ± 0.26 1.12 ± 0.72 1.55 ± 0.49 %"},
      {"measurement": "% DNA in tail", "setting": "HepaRG cells [3]", "value": "0.96 ± 0.59 1.47 ± 0.10 1.41 ± 1.04 5.09 ± 0.52 %"},
      {"measurement": "Result of SCGE experiments (in words)", "setting": "HepaRG cells [3]", "value": "detected"},
      {"measurement": "% DNA in tail", "setting": "HuH6 cells", "value": "1.73 ± 2.62 2.91 ± 1.45 6.86 ± 1.74* 13.1 ± 4.41 %"},
      {"measurement": "% DNA in tail", "setting": "HuH7 cells", "value": "0.61 ± 0.35 0.69 ± 0.48 0.77 ± 0.60 3.01 ± 2.11 %"},
      {"measurement": "Result of SCGE experiments (in words)", "setting": "HuH7 cells", "value": "induction of DNA damage was found"},
      {"measurement": "% DNA in tail", "setting": "JHH6 cells", "value": "1.17 ± 1.11 1.33 ± 0.66 1.69 ± 0.81 1.16 ± 0.53%"},
      {"measurement": "% DNA in tail", "setting": "PLC/PRF cells", "value": "1.15 ± 1.25 1.04 ± 0.33 1.65 ± 1.55 1.09 ± 0.33%"},
      {"measurement": "% DNA in tail", "setting": "SK-Hep1 cells", "value": "0.46 ± 0.16 0.70 ± 0.42 0.59 ± 0.24 0.37 ± 0.34%"},
      {"measurement": "% DNA in tail", "setting": "SNU-398 cells", "value": "0.40 ± 0.14 0.65 ± 0.50 0.83 ± 0.53 0.28 ± 0.11%"},
      {"measurement": "% DNA in tail", "setting": "SNU-449 cells", "value": "0.23 ± 0.16 0.52 ± 0.24 0.54 ± 0.11 0.15 ± 0.03%"},
      {"measurement": "% DNA in tail", "setting": "WRL68 cells", "value": "0.43 ± 0.22 1.03 ± 0.74 0.93 ± 0.05 0.12 ± 0.01%"},
      {"measurement": "Doses required to cause significant effects in SCGE assays", "setting": "[4]", "value": "≥ 100", "unit": "mM"},
      {"measurement": "Number of the twelve lines sensitive towards the compound", "setting": "[4]", "value": "five"},
      {"measurement": "Sensitivity of primary hepatocytes compared with HepG2", "setting": "[2]", "value": "substantially stronger effects"}
    ]}
  ]
}
